Data reported in the supplement of paper PMC8092582.
Counter-ions that a name gives are not always drawn. ± gives the standard deviation of the averaged measurements.

System: HeLa
Assay: cell viability (CellTiter-Glo) relative to median of lowest-dilution wells of all drugs (fraction); higher = more viable cells
Procedure: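 HeLa control and CRISPR DDX11 knockout cells were seeded in 384-well plates and incubated for 72 h with each of 64 […] drugs at six concentrations. Viability was read with CellTiter-Glo and normalised to the median of the lowest (6th) dilution wells of all drugs. Two biological replicates (BR1, BR2) are averaged; the concentration unit is not stated.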

[1] = drug concentration (unit not stated): 0.01, genotype: DDX11 knockout
[2] = drug concentration (unit not stated): 0.01, genotype: control (DDX11 wild type)
[3] = drug concentration (unit not stated): 0.04, genotype: DDX11 knockout
[4] = drug concentration (unit not stated): 0.04, genotype: control (DDX11 wild type)
[5] = drug concentration (unit not stated): 0.12, genotype: DDX11 knockout
[6] = drug concentration (unit not stated): 0.12, genotype: control (DDX11 wild type)
[7] = drug concentration (unit not stated): 0.37, genotype: DDX11 knockout
[8] = drug concentration (unit not stated): 0.37, genotype: control (DDX11 wild type)
[9] = drug concentration (unit not stated): 1.11, genotype: DDX11 knockout
[10] = drug concentration (unit not stated): 1.11, genotype: control (DDX11 wild type)
[11] = drug concentration (unit not stated): 3.33, genotype: DDX11 knockout
[12] = drug concentration (unit not stated): 3.33, genotype: control (DDX11 wild type)
[13] = drug concentration (unit not stated): 10, genotype: DDX11 knockout
[14] = drug concentration (unit not stated): 10, genotype: control (DDX11 wild type)

SMILES | cell viability [1] | cell viability [2] | cell viability [3] | cell viability [4] | cell viability [5] | cell viability [6] | cell viability [7] | cell viability [8] | cell viability [9] | cell viability [10] | cell viability [11] | cell viability [12] | cell viability [13] | cell viability [14] | cell viability (drug concentration (unit not stated): 30, genotype: DDX11 knockout) | cell viability (drug concentration (unit not stated): 30, genotype: control (DDX11 wild type))
O=C1c2c(O)ccc(O)c2C(=O)c2c(NCCNCCO)ccc(NCCNCCO)c21 [Mitoxantrone Hydrochloride] | 0.834 ± 0.17 | 0.952 ± 0.011 | 0.556 ± 0.33 | 0.88 ± 0.18 | 0.292 ± 0.31 | 0.858 ± 0.57 | 0.124 ± 0.13 | 0.583 ± 0.73 | 0.0246 ± 0.0088 | 0.312 ± 0.42 |  |  |  |  |  | 
O=c1cc(N2CCOCC2)oc2c(-c3cccc4c3sc3ccccc34)cccc12 [NU7441] |  |  | 0.982 ± 0.06 | 0.9779 ± 0.0026 | 0.953 ± 0.032 | 0.963 ± 0.011 | 1.02 ± 0.073 | 0.9893 ± 0.0052 | 0.972 ± 0.013 | 1.019 ± 0.0044 | 0.918 ± 0.066 | 0.992 ± 0.14 | 0.834 ± 0.15 | 0.935 ± 0.37 |  | 
COc1ccc(C2=N[C@@H](c3ccc(Cl)cc3)[C@@H](c3ccc(Cl)cc3)N2C(=O)N2CCNC(=O)C2)c(OC(C)C)c1 [Nutlin-3] |  |  | 0.977 ± 0.022 | 0.944 ± 0.013 | 0.981 ± 0.057 | 0.9784 ± 0.0054 | 0.983 ± 0.047 | 1.029 ± 0.0079 | 0.9903 ± 0.0028 | 0.956 ± 0.0068 | 0.965 ± 0.026 | 1.035 ± 0.0094 | 0.9631 ± 0.0059 | 1.06 ± 0.096 |  | 
COC1=CC(c2cc3ccccc3[nH]2)=N/C1=C\c1[nH]c(C)cc1C [Obatoclax mesylate] |  |  | 1.07 ± 0.017 | 1.01 ± 0.056 | 0.872 ± 0.087 | 1.05 ± 0.19 | 0.56 ± 0.044 | 0.728 ± 0.13 | 0.307 ± 0.026 | 0.415 ± 0.13 | 0.25 ± 0.017 | 0.344 ± 0.14 | 0.141 ± 0.062 | 0.0791 ± 0.041 |  | 
O=C(c1cc(Cc2n[nH]c(=O)c3ccccc23)ccc1F)N1CCN(C(=O)C2CC2)CC1 [Olaparib] |  |  | 1.072 ± 0.0052 | 1.02 ± 0.032 | 1.02 ± 0.024 | 1.04 ± 0.043 | 0.953 ± 0.063 | 0.959 ± 0.036 | 0.954 ± 0.037 | 0.967 ± 0.035 | 0.796 ± 0.076 | 0.987 ± 0.011 | 0.677 ± 0.083 | 1.01 ± 0.066 |  | 
CC(=O)O[C@H]1C(=O)[C@@]2(C)[C@H]([C@H](OC(=O)c3ccccc3)[C@]3(O)C[C@H](OC(=O)[C@H](O)[C@@H](NC(=O)c4ccccc4)c4ccccc4)C(C)=C1C3(C)C)[C@]1(OC(C)=O)CO[C@@H]1C[C@@H]2O [Paclitaxel (Taxol)] | 0.44 ± 0.12 | 0.515 ± 0.11 | 0.26 ± 0.017 | 0.379 ± 0.11 | 0.203 ± 0.0074 | 0.148 ± 0.021 | 0.2001 ± 0.00037 | 0.169 ± 0.016 | 0.197 ± 0.031 | 0.2 ± 0.042 | 0.179 ± 0.033 | 0.139 ± 0.0065 |  |  |  | 
CC(=O)c1c(C)c2cnc(Nc3ccc(N4CCNCC4)cn3)nc2n(C2CCCC2)c1=O [Palbociclib] |  |  |  |  | 1.02 ± 0.084 | 1.017 ± 0.00052 | 1.0721 ± 0.001 | 1.01 ± 0.017 | 1.009 ± 0.0063 | 1.02 ± 0.025 | 1.03 ± 0.054 | 1.01 ± 0.022 | 0.9 ± 0.0099 | 0.986 ± 0.11 | 0.658 ± 0.045 | 0.893 ± 0.26
Nc1nc2[nH]cc(CCc3ccc(C(=O)N[C@@H](CCC(=O)O)C(=O)O)cc3)c2c(=O)[nH]1 [Pemetrexed] | 1 ± 0.099 | 0.99 ± 0.11 | 0.983 ± 0.29 | 0.903 ± 0.41 | 0.911 ± 0.26 | 0.98 ± 0.53 | 0.781 ± 0.21 | 0.814 ± 0.4 | 0.741 ± 0.18 | 0.756 ± 0.34 |  |  |  |  |  | 
CO[C@H]1C[C@@H]2CC[C@@H](C)[C@@](O)(O2)C(=O)C(=O)N2CCCC[C@H]2C(=O)O[C@H]([C@H](C)C[C@@H]2CC[C@@H](O)[C@H](OC)C2)CC(=O)[C@H](C)/C=C(\C)[C@@H](O)[C@@H](OC)C(=O)[C@H](C)C[C@H](C)/C=C/C=C/C=C/1C [Rapamycin (Sirolimus)] | 0.764 ± 0.11 | 0.916 ± 0.33 | 0.755 ± 0.13 | 0.883 ± 0.33 | 0.786 ± 0.18 | 0.887 ± 0.33 | 0.706 ± 0.11 | 0.903 ± 0.33 | 0.718 ± 0.11 | 0.878 ± 0.35 | 0.67 ± 0.12 | 0.84 ± 0.35 |  |  |  | 
